Each block holds one molecule with its values, some of them ahead of it.
Tests used:
[1] = test system: broad panel (n=116) of additional RTKs and other protein kinases; settings: at 1 μM; cited from earlier work
phospho-IGF-1R [2] = target: T1, phospho-IGF-1R (Homo sapiens, UniProt P08069); assay: RTK capture array, panel of nine tumor cell lines; assay type: cell-based; set-up: endogenous in cells; host or cells: human tumour cell lines (panel of nine; HT-29; MDAH-2774; H322, SK-N-AS, H295R, A673); settings: OSI-906 3 μM or MAB391 3 μg/mL; 16 hours; each cell line tested
T1 sequence (P08069 31-1367): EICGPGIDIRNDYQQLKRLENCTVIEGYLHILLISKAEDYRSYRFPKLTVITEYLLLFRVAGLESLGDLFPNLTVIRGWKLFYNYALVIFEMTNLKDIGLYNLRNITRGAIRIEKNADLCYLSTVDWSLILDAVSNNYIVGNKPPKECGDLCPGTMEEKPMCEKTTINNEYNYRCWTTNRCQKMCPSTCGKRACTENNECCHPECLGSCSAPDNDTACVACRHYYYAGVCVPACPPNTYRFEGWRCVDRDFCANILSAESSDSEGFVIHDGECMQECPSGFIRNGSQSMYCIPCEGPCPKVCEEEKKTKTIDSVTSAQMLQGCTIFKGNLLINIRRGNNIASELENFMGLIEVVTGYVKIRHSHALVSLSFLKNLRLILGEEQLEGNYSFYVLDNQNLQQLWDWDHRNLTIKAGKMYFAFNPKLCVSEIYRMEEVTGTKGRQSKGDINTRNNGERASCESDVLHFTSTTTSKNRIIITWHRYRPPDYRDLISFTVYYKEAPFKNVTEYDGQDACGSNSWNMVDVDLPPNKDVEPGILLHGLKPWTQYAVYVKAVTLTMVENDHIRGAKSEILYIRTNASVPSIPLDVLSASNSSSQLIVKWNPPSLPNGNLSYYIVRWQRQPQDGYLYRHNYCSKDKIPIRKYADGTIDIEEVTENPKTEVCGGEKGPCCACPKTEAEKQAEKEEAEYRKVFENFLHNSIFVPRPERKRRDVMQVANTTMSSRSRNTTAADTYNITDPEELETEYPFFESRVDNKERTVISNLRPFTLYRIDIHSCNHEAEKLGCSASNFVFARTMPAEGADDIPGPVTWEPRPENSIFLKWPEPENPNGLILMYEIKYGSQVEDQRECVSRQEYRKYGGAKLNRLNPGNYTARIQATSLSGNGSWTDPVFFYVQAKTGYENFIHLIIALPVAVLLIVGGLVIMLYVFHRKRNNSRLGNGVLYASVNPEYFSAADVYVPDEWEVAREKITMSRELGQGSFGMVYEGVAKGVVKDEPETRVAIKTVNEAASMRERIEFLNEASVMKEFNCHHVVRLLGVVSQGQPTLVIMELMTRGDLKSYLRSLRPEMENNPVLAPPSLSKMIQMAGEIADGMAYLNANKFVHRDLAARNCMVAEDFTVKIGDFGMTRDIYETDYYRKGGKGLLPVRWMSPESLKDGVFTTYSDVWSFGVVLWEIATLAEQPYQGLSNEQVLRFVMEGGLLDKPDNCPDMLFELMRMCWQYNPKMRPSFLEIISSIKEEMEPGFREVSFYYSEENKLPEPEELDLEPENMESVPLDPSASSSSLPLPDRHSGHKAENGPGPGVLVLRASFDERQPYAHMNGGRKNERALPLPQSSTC
Experimental: (§1) Analysis of RTK phosphorylation via a proteome array: Proteome Profiler arrays containing capture antibodies for 42 RTKs were from R&D systems (RTK Proteome Profile; R&D Systems, Minneapolis, Minn.) and processed according to manufacturer's protocol. pIGF-1R and pIR were determined by RTK capture array. Proteome profiler arrays housed 42 different RTKs. RTKs included on the array include: HER1, HER2, HER3, HER4, FGFR1, FGFR2a, FGFR3, FGFR4, IR, IGF-1R, Axl, Dtk, Mer, HGFR, MSPR, PDGFRα, PDGFRβ, SCFR, Flt-3, M-CSFR, c-Ret, ROR1, ROR2, Tie-1, Tie-2, TrkA, TrkB, TrkC, VEGFR1, VEGFR2, VEGFR3, MuSK, EphA1, EphA2, EphA3, EphA4, EphA6, EphA7, EphB1, EphB2, EphB4, EphB6. This array was used as an RTK capture assay for determining pIGF-1R and pIR levels. Capture antibodies specific to each RTK are used to bind RTKs in tumor cell extracts. An HRP-conjugated pan anti-phospho-tyrosine antibody is used to specifically detect phosphorylated RTKs.

GEO (CRC) tumors = assay: tumor xenograft anti-tumor efficacy; assay type: in vivo, nu/nu CD-1 mice; settings: OSI-906 50 mg/kg once-daily for 14 days; MAB391 every three days for a total of 5 doses
Excerpt: (§2) Animals: Female nu/nu CD-1 mice (6-8 weeks, 22-25 g) were purchased from Charles River Laboratories (Wilmington, Mass.) and maintained in an AAALAC-accredited facility at OSI Pharmaceuticals as described previously (12).
(§3) In vivo anti-tumor efficacy studies: Cells were harvested and implanted s.c. in the right flank of nu/nu CD-1 mice as described previously (12). Tumors were allowed to establish to 200±50 mm^3 in size before randomization into various treatment groups. […] Tumor volumes were determined from caliper measurements using the formula V=(length×width^2)/2. Tumor sizes and body weights were measured twice weekly. Tumor growth inhibition (TGI) was determined at different time points by the following formula: % TGI={1−[(Tt/T0)/(Ct/C0)]/1[C0/Ct}×100, where Tt=median tumor volume of treated at time t, T0=median tumor volume of treated at time 0, Ct=median tumor volume of control at time t, and C0=median tumor volume of control at time 0.

[3] = test system: SK-N-AS (neuroblastoma) tumors; assay: tumor xenograft anti-tumor efficacy; assay type: in vivo, nu/nu CD-1 mice
Excerpt: as §2, §3

IR and IGF-1R = assay: receptor phosphorylation in doxorubicin-treated A673 tumor cells; assay type: cell-based, human
phospho-AKT [4] = assay: in vivo pharmacodynamic analysis, GEO tumors; set-up: species or system nu/nu CD-1 mice; settings: GEO model
Experimental: Tumor samples were collected at specified time points and snap frozen in liquid nitrogen. Tumor lysates were prepared by homogenizing samples in Precellys 24 homogenizer (MO Bio Laboratories, Inc., CA) with tumor lysis buffer (1% Triton X-100, 10% glycerol, 50 mM HEPES (ph 7.4), 150 mM NaCl, 1.5 mM MgCl2, 1 mM EDTA supplemented with fresh protease inhibitor cocktail (Sigma, Mo.), phosphatase inhibitor cocktail (Sigma, Mo.), 10 mM NaF and 1 mM sodium orthovanadate). Tissue homogenates were clarified by centrifugation at 14,000 g for 5 min at 4° C. and supernatants were then analyzed by Western blot or phospho-RTK array as indicated.

phospho-IGF-1R [5] = target: T1, phospho-IGF-1R; assay: receptor phosphorylation in MDAH-2774 cells; assay type: cell-based; set-up: endogenous in cells; host or cells: human tumour cell lines (MDAH-2774); settings: MDAH-2774 cells alone or with insulin, IGF-1 or IGF-2; OSI-906 3 μM or MAB391 3 μg/ml
Experimental: (§4) Preparation of Protein Lysates and Western Blotting: Lysates for Western blotting were prepared as previously described (44). Antibodies included: IGF-1R (Santa Cruz), IR (Santa Cruz), phospho-p42/p44 (Cell Signaling Technologies), phospho-Akt (S473) (Cell Signaling Technologies), phospho-Akt (T308) (Cell Signaling Technologies), phosho-S6 (235/236) (Cell Signaling Technologies), phosphor-PRAS40 (Cell Signaling Technologies), and phosphor-IRS-1-Y612 (Biosource).
as §1, with “An HRP-conjugated pan anti-phospho-tyrosine antibody is used to specifically detect phosphorylated RTKs.” left out

FaDu tumors = assay: tumor xenograft anti-tumor efficacy; set-up: species or system nu/nu CD-1 mice; settings: after treatment with OSI-906 in vivo for 10-14 days
Excerpt: as §2, §3

BxPC3 tumors = assay: tumor xenograft anti-tumor efficacy; set-up: species or system nu/nu CD-1 mice; settings: after treatment with OSI-906 in vivo for 10-14 days
Excerpt: as §2, §3

H460 tumors = assay: tumor xenograft anti-tumor efficacy; set-up: species or system nu/nu CD-1 mice; settings: after treatment with OSI-906 in vivo for 10-14 days
Excerpt: as §2, §3

H295R tumors = assay: tumor xenograft anti-tumor efficacy; set-up: species or system nu/nu CD-1 mice; settings: after treatment with OSI-906 in vivo for 10-14 days
Excerpt: as §2, §3

Colo205 tumors = assay: tumor xenograft anti-tumor efficacy; set-up: species or system nu/nu CD-1 mice; settings: after treatment with OSI-906 in vivo for 10-14 days
Excerpt: as §2, §3

phospho-AKT [6] = assay: phospho-AKT in HT-29 CRC cells with insulin; assay type: cell-based, human; settings: HT-29 cells, basal or 5 or 50 μIU/mL insulin
Experimental: as §4

phospho-IRS1^Y612 = assay: Western blot, phospho-IRS1 in tumor cell lines; assay type: cell-based, human; settings: A673, H322, and H295R tumor cell lines; OSI-906 3 μM or MAB391 3 μg/ml
Experimental: as §4

phospho-IGF-1R [7] = target: T1, phospho-IGF-1R; assay: receptor phosphorylation in HT-29 CRC cells with insulin; assay type: cell-based; set-up: endogenous in cells; host or cells: human tumour cell lines (panel of nine; HT-29; MDAH-2774; H322, SK-N-AS, H295R, A673); settings: HT-29 cells treated with 5 or 50 μIU/mL insulin; OSI-906 3 μM or MAB391 3 μg/ml, 16 hours
Experimental: as §4
as §1, with “An HRP-conjugated pan anti-phospho-tyrosine antibody is used to specifically detect phosphorylated RTKs.” left out

[8] = test system: phospho-AKT or phospho-ERK; assay: Western blot, downstream AKT and ERK signaling in tumor cell lines; assay type: cell-based, human; settings: OSI-906 3 μM or MAB391 3 μg/ml, 16 hour
Experimental: as §4

[9] = test system: MDAH-2774 OvCa tumor cells; assay: growth inhibition assay (Cell Titer-Glo); assay type: cell-based, human
Excerpt: Cell Lines and Culture. Human cancer cell lines, were obtained from American Type Culture Collection (ATCC, Manassas, Va.), or the following additional indicated sources, and cultured in media as described. Tumor types are also indicated: H295R (adrenocortical carcinoma; ATCC), NCI-[…], NCI-[…], SW1573 (NSCLC; ATCC), […], BxPC3 (pancreatic; ATCC), OVCAR5 (ovarian; NCI;), MDAH-2774 (ovarian; ATCC), Igrov1 (ovarian; NCI), GEO (colon; Roswell Park Cancer Institute (RPCC)), HT-29 (colon; ATCC), RKO (colon; ATCC), […], 8226 (myeloma; ATCC), H929 (myeloma; ATCC), U266 (myeloma; ATCC), SKES1 (Ewings sarcoma; ATCC), RDES (Ewings sarcoma; ATCC), RD (rhabdomyosarcoma; ATCC), DU4475 (breast; ATCC), SKNAS (neuroblastoma; ATCC), 2650 (nasal SCC; ATCC), OVCAR4 (ovarian; NCI), A673 (Ewings sarcoma; ATCC), BT474 (breast; ATCC), 1386 (oral SCC; MSKCC, NY), 1186 (SCCHN; MSKCC, NY), Colo205 (colon; ATCC), HCT-15 (colon; ATCC), Fadu (oral SCC; ATCC), SKBR3 (breast; ATCC), 1483 (HNSCC; MSKCC, NY), HSC-2 (HNSCC; RIKEN BioResource Center, Tsukuba, Ibaraki, 305-0074, Japan). […] The cells were routinely screened for the presence of mycoplasma (MycoAlert, Cambrex Bio Science, Baltimore, Md.). For growth inhibition assays, cells were plated and allowed to proliferate for 24 hours. […] Cell viability was assayed using the Cell Titer-Glo reagent (Promega Corp., Madison, Wis.).

phospho-PRAS40 = assay: Western blot, phospho-PRAS40 in H295R cells; assay type: cell-based, human
Experimental: as §4

pERK = pERK in doxorubicin-treated A673 tumor cells; assay type: cell-based, human
[10] = A673 tumor cells, doxorubicin 300 nM

- decrease of phospho-IGF-1R (phospho-IGF-1R [2]): > 90%
- inhibition of IGF-1R phosphorylation (phospho-IGF-1R [5]): fully inhibited
- inhibition of phospho-IGF-1R (phospho-IGF-1R [7]): fully inhibited
SMILES: C[C@]1(O)C[C@@H](c2nc(-c3ccc4ccc(-c5ccccc5)nc4c3)c3c(N)nccn32)C1 [OSI-906, cis-3-[8-amino-1-(2-phenyl-quinolin-7-yl)-imidazo[1,5-a]pyrazin-3-yl]-1-methyl-cyclobutanol]
- inhibition [1]: < 50%
- mean TGI over the dosing period (GEO (CRC) tumors): 79%
- mean tumor growth inhibition (TGI) over the dosing period ([3]; OSI-906 50 mg/kg once-daily for 14 days, MAB391 1 mg every three days intraperitoneally): 100%
- % TGI ([3]; after treatment with OSI-906 in vivo for 10-14 days): 71%
- inhibition of IR and IGF-1R phosphorylation (IR and IGF-1R; A673 tumor cells treated with doxorubicin (300 nM)): inhibits both IR and IGF-1R
- effect on phospho-AKT in tumors (phospho-AKT [4]): decreased phospho-AKT in tumors
- % TGI (FaDu tumors): < 30%
- % TGI (BxPC3 tumors): 56%
- % TGI (H460 tumors): < 30%
- % TGI (H295R tumors): 85%
- % TGI (Colo205 tumors): 90%
- inhibition of phospho-AKT (phospho-AKT [6]): fully inhibited
- inhibition of phosphorylation of IRS1^Y612 (phospho-IRS1^Y612): strongly inhibited
- decrease of phospho-AKT or phospho-ERK levels ([8]; H322, H295R, and A673 cells): to a greater extent than did MAB391
- effect on phospho-AKT levels ([8]; SK-N-AS (neuroblastoma) tumor cells): decrease phospho-AKT levels
- sensitivity to OSI-906 in vitro [9]: sensitive
- effect on phospho-PRAS40 (phospho-PRAS40): decreased phospho-PRAS40
- inhibition of pERK (pERK; A673 tumor cells treated with doxorubicin (300 nM), compared with MAB391): greater inhibition of pERK

SMILES: COc1cccc2c1C(=O)c1c(O)c3c(c(O)c1C2=O)C[C@@](O)(C(=O)CO)C[C@@H]3O[C@H]1C[C@H](N)[C@H](O)[C@H](C)O1 [doxorubicin, reference compound]
- phosphorylation of IR and IGF-1R following treatment (IR and IGF-1R; [10]): upregulated phosphorylation of both IR and IGF-1R
- downstream signaling at the level of pERK following treatment (pERK; [10]): increased phosphorylation of downstream signaling at the level of pERK
